{"source": "the supplement of paper PMC10307832", "test_in_all_cases": "relative viability (nuclei count vs DMSO), 5 days (fraction); higher = more cells survive", "key": {"[1]": {"test_system": "201T", "in_short": "(§1)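 Medians of duplicate plates are given as relative viability. That measure is the nuclei count in treated wells divided by the count in vehicle wells. Counts were taken on 4× images of lung cancer cell lines in 1536-well plates, 5 days after pin-tool dosing the day after seeding with one drug alone or a fixed anchor-drug dose plus five library-drug doses (not always all listed) in √10 steps.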"}, "[2]": {"test_system": "A-427", "in_short": "as §1"}, "[3]": {"test_system": "BEN", "in_short": "as §1"}, "[4]": {"test_system": "COR-L23", "in_short": "as §1"}, "[5]": {"test_system": "EKVX", "in_short": "as §1"}, "[6]": {"test_system": "HARA", "in_short": "as §1"}, "[7]": {"test_system": "HCC-15", "in_short": "as §1"}, "[8]": {"test_system": "HCC-44", "in_short": "as §1"}, "[9]": {"test_system": "HCC-827", "in_short": "as §1"}, "[10]": {"test_system": "NCI-H1437", "in_short": "as §1"}, "[11]": {"test_system": "NCI-H1650", "in_short": "as §1"}, "[12]": {"test_system": "NCI-H1666", "in_short": "as §1"}, "[13]": {"test_system": "NCI-H1975", "in_short": "as §1"}, "[14]": {"test_system": "NCI-H2342", "in_short": "as §1"}, "[15]": {"test_system": "NCI-H23", "in_short": "as §1"}, "[16]": {"test_system": "NCI-H358", "in_short": "as §1"}, "[17]": {"test_system": "NCI-H441", "in_short": "as §1"}, "[18]": {"test_system": "NCI-H596", "in_short": "as §1"}, "[19]": {"test_system": "NCI-H650", "in_short": "as §1"}, "[20]": {"test_system": "NCI-H838", "in_short": "as §1"}, "[21]": {"test_system": "SK-MES-1", "in_short": "as §1"}, "[22]": {"test_system": "SW 900", "in_short": "as §1"}}, "data": [{"smiles": "COc1nc(C)cnc1NS(=O)(=O)c1cccnc1-c1ccc(-c2nnco2)cc1", "note": "[Zibotentan] + Cc1cc(Nc2cc(N3CCN(C)CC3)nc(Sc3ccc(NC(=O)C4CC4)cc3)n2)n[nH]1 [Tozasertib] (partner 0.1 µM)", "values": [{"measurement": "relative viability", "setting": "[1]; first compound 0.08 µM", "value": 1.07}, {"measurement": "relative viability", "setting": "[1]; first compound 0.253 µM", "value": 0.881}, {"measurement": "relative viability", "setting": "[1]; first compound 0.8 µM", "value": 0.955}, {"measurement": "relative viability", "setting": "[1]; first compound 2.53 µM", "value": 1.04}, {"measurement": "relative viability", "setting": "[2]; first compound 0.08 µM", "value": 0.232}, {"measurement": "relative viability", "setting": "[2]; first compound 0.253 µM", "value": 0.205}, {"measurement": "relative viability", "setting": "[2]; first compound 0.8 µM", "value": 0.25}, {"measurement": "relative viability", "setting": "[2]; first compound 2.53 µM", "value": 0.258}, {"measurement": "relative viability", "setting": "[3]; first compound 0.08 µM", "value": 0.542}, {"measurement": "relative viability", "setting": "[3]; first compound 0.253 µM", "value": 0.426}, {"measurement": "relative viability", "setting": "[3]; first compound 0.8 µM", "value": 0.473}, {"measurement": "relative viability", "setting": "[3]; first compound 2.53 µM", "value": 0.642}, {"measurement": "relative viability", "setting": "[4]; first compound 0.08 µM", "value": 0.218}, {"measurement": "relative viability", "setting": "[4]; first compound 0.253 µM", "value": 0.216}, {"measurement": "relative viability", "setting": "[4]; first compound 0.8 µM", "value": 0.224}, {"measurement": "relative viability", "setting": "[4]; first compound 2.53 µM", "value": 0.337}, {"measurement": "relative viability", "setting": "[5]; first compound 0.08 µM", "value": 0.414}, {"measurement": "relative viability", "setting": "[5]; first compound 0.253 µM", "value": 0.348}, {"measurement": "relative viability", "setting": "[5]; first compound 0.8 µM", "value": 0.365}, {"measurement": "relative viability", "setting": "[5]; first compound 2.53 µM", "value": 0.428}, {"measurement": "relative viability", "setting": "[6]; first compound 0.08 µM", "value": 0.0875}, {"measurement": "relative viability", "setting": "[6]; first compound 0.253 µM", "value": 0.102}, {"measurement": "relative viability", "setting": "[6]; first compound 0.8 µM", "value": 0.13}, {"measurement": "relative viability", "setting": "[6]; first compound 2.53 µM", "value": 0.28}, {"measurement": "relative viability", "setting": "[7]; first compound 0.08 µM", "value": 0.481}, {"measurement": "relative viability", "setting": "[7]; first compound 0.253 µM", "value": 0.314}, {"measurement": "relative viability", "setting": "[7]; first compound 0.8 µM", "value": 0.373}, {"measurement": "relative viability", "setting": "[7]; first compound 2.53 µM", "value": 0.402}, {"measurement": "relative viability", "setting": "[8]; first compound 0.08 µM", "value": 1.33}, {"measurement": "relative viability", "setting": "[8]; first compound 0.8 µM", "value": 0.852}, {"measurement": "relative viability", "setting": "[8]; first compound 2.53 µM", "value": 0.862}, {"measurement": "relative viability", "setting": "[9]; first compound 0.08 µM", "value": 0.438}, {"measurement": "relative viability", "setting": "[9]; first compound 0.253 µM", "value": 0.411}, {"measurement": "relative viability", "setting": "[9]; first compound 0.8 µM", "value": 0.409}, {"measurement": "relative viability", "setting": "[9]; first compound 2.53 µM", "value": 0.371}, {"measurement": "relative viability", "setting": "[10]; first compound 0.08 µM", "value": 0.421}, {"measurement": "relative viability", "setting": "[10]; first compound 0.253 µM", "value": 0.378}, {"measurement": "relative viability", "setting": "[10]; first compound 0.8 µM", "value": 0.38}, {"measurement": "relative viability", "setting": "[10]; first compound 2.53 µM", "value": 0.448}, {"measurement": "relative viability", "setting": "[11]; first compound 0.08 µM", "value": 0.491}, {"measurement": "relative viability", "setting": "[11]; first compound 0.8 µM", "value": 0.487}, {"measurement": "relative viability", "setting": "[11]; first compound 2.53 µM", "value": 0.418}, {"measurement": "relative viability", "setting": "[12]; first compound 0.08 µM", "value": 0.582}, {"measurement": "relative viability", "setting": "[12]; first compound 0.253 µM", "value": 0.593}, {"measurement": "relative viability", "setting": "[12]; first compound 0.8 µM", "value": 0.784}, {"measurement": "relative viability", "setting": "[12]; first compound 2.53 µM", "value": 0.646}, {"measurement": "relative viability", "setting": "[13]; first compound 0.08 µM", "value": 0.732}, {"measurement": "relative viability", "setting": "[13]; first compound 0.253 µM", "value": 0.695}, {"measurement": "relative viability", "setting": "[13]; first compound 0.8 µM", "value": 0.727}, {"measurement": "relative viability", "setting": "[13]; first compound 2.53 µM", "value": 0.831}, {"measurement": "relative viability", "setting": "[14]; first compound 0.08 µM", "value": 0.496}, {"measurement": "relative viability", "setting": "[14]; first compound 0.253 µM", "value": 0.446}, {"measurement": "relative viability", "setting": "[14]; first compound 0.8 µM", "value": 0.493}, {"measurement": "relative viability", "setting": "[14]; first compound 2.53 µM", "value": 0.667}, {"measurement": "relative viability", "setting": "[15]; first compound 0.08 µM", "value": 0.284}, {"measurement": "relative viability", "setting": "[15]; first compound 0.253 µM", "value": 0.331}, {"measurement": "relative viability", "setting": "[15]; first compound 0.8 µM", "value": 0.314}, {"measurement": "relative viability", "setting": "[15]; first compound 2.53 µM", "value": 0.413}, {"measurement": "relative viability", "setting": "[16]; first compound 0.08 µM", "value": 0.0974}, {"measurement": "relative viability", "setting": "[16]; first compound 0.253 µM", "value": 0.099}, {"measurement": "relative viability", "setting": "[16]; first compound 0.8 µM", "value": 0.0954}, {"measurement": "relative viability", "setting": "[16]; first compound 2.53 µM", "value": 0.0945}, {"measurement": "relative viability", "setting": "[17]; first compound 0.08 µM", "value": 0.633}, {"measurement": "relative viability", "setting": "[17]; first compound 0.253 µM", "value": 0.545}, {"measurement": "relative viability", "setting": "[17]; first compound 0.8 µM", "value": 0.728}, {"measurement": "relative viability", "setting": "[17]; first compound 2.53 µM", "value": 0.592}, {"measurement": "relative viability", "setting": "[18]; first compound 0.08 µM", "value": 0.883}, {"measurement": "relative viability", "setting": "[18]; first compound 0.253 µM", "value": 0.846}, {"measurement": "relative viability", "setting": "[18]; first compound 0.8 µM", "value": 0.684}, {"measurement": "relative viability", "setting": "[18]; first compound 2.53 µM", "value": 1.07}, {"measurement": "relative viability", "setting": "[19]; first compound 0.08 µM", "value": 0.871}, {"measurement": "relative viability", "setting": "[19]; first compound 0.253 µM", "value": 0.699}, {"measurement": "relative viability", "setting": "[19]; first compound 0.8 µM", "value": 0.692}, {"measurement": "relative viability", "setting": "[19]; first compound 2.53 µM", "value": 0.738}, {"measurement": "relative viability", "setting": "[20]; first compound 0.08 µM", "value": 0.284}, {"measurement": "relative viability", "setting": "[20]; first compound 0.253 µM", "value": 0.229}, {"measurement": "relative viability", "setting": "[20]; first compound 0.8 µM", "value": 0.274}, {"measurement": "relative viability", "setting": "[20]; first compound 2.53 µM", "value": 0.329}, {"measurement": "relative viability", "setting": "[21]; first compound 0.08 µM", "value": 0.999}, {"measurement": "relative viability", "setting": "[21]; first compound 0.253 µM", "value": 0.809}, {"measurement": "relative viability", "setting": "[21]; first compound 0.8 µM", "value": 0.874}, {"measurement": "relative viability", "setting": "[21]; first compound 2.53 µM", "value": 0.877}, {"measurement": "relative viability", "setting": "[22]; first compound 0.08 µM", "value": 0.553}, {"measurement": "relative viability", "setting": "[22]; first compound 0.253 µM", "value": 0.549}, {"measurement": "relative viability", "setting": "[22]; first compound 0.8 µM", "value": 0.617}, {"measurement": "relative viability", "setting": "[22]; first compound 2.53 µM", "value": 0.586}]}]}
